Assay results published in US20150038438A1, “ANTIBACTERIAL COMPOUNDS AND METHODS FOR USE” (PTC THERAPEUTICS, INC., priority 2011, published 2015).
In brackets after ≈: the same amount, converted by molar mass. Like-named read-outs stand apart in the source and are kept apart here.

Assays:
Test in all cases: Antibacterial activity, microbroth dilution method (MIC)
[1] = test system: super sensitive Gram-negative Escherichia coli (E. coli) BAS849; assay type: cell-based; conditions: for MIC: Escherichia coli, read-out: MIC, E. coli BAS849
Source text: (§1) The antibacterial activity from a microbroth dilution method may be presented as the minimum inhibitory concentration (MIC in μg/mL). The MIC value is the lowest concentration of drug which prevents macroscopically visible growth under test conditions.
(§2) Antibacterial activity of test compounds against the super sensitive Gram-negative Escherichia coli (E. coli) BAS849 bacterium, the control Gram-negative E. coli 25922 strain and the Gram-positive Staphylococcus aureus (S. aureus) 29213 bacterium are shown in Table 1.

[2] = test system: Gram-positive Staphylococcus aureus (S. aureus) 29213; assay type: cell-based; conditions: Gram-positive S. aureus 29213; for MIC: Staphylococcus aureus
Source text: as §1, §2

[3] = test system: control Gram-negative E. coli 25922 strain; assay type: cell-based, Escherichia coli; conditions: for MIC: Escherichia coli
Source text: as §1, §2

[4] = super sensitive Gram-negative E. coli BAS849, microbroth dilution

## Cl.Cn1c(CNCC(C)(C)C)cc2cc3c(cc21)CCCc1c-3[nH]c(=O)c(C(=O)O)c1O [Cpd 155, 4-hydroxy-9-methyl-10-((neopentylamino)methyl)-2-oxo-1,2,5,6,7,9-hexahydropyrido[3′,2′:6,7]cyclohepta[1,2-f]indole-3-carboxylic acid hydrochloride]
[1]; [4]
  MIC: < 1 µg/mL
[2]
  MIC: 3.5 to 12.5 µg/mL
[3]
  MIC: 1 to 3.5 µg/mL

## CN(C)C1CCN(Cc2cc3cc4c(cc3n2C)CCCc2c-4[nH]c(=O)c(C(=O)O)c2O)C1.Cl.Cl (stereo not drawn) [Cpd 47, 10-((3-(dimethylamino)pyrrolidin-1-yl)methyl)-4-hydroxy-9-methyl-2-oxo-1,2,5,6,7,9-hexahydropyrido[3′,2′:6,7]cyclohepta[1,2-f]indole-3-carboxylic acid dihydrochloride]
[1]; [4]
  MIC: < 1 µg/mL
[2]
  MIC: 3.5 to 12.5 µg/mL
[3]
  MIC: 3.5 to 12.5 µg/mL

## CCNCc1cc2cc3c(cc2n1C)CCCCc1c-3[nH]c(=O)c(C(=O)O)c1O.Cl [Cpd 59, 11-((ethylamino)methyl)-4-hydroxy-10-methyl-2-oxo-2,5,6,7,8,10-hexahydro-1H-pyrido[3′,2′:7,8]cycloocta[1,2-f]indole-3-carboxylic acid hydrochloride]
[1]; [4]
  MIC: < 1 µg/mL
[2]
  MIC: 3.5 to 12.5 µg/mL
[3]
  MIC: < 1 µg/mL

## NC1C2CN(c3ccc4c(c3)C(O)CCc3c-4[nH]c(=O)c(C(=O)O)c3O)CC12.O=C(O)C(F)(F)F (stereo not drawn) [Cpd 14, 9-((cis,cis)-6-amino-3-azabicyclo[3.1.0]hexan-3-yl)-4,7-dihydroxy-2-oxo-2,5,6,7-tetrahydro-1H-benzo[6,7]cyclohepta[1,2-b]pyridine-3-carboxylic acid trifluoroacetate salt]
[1]; [4]
  MIC, E. coli BAS849: * (an MIC value between >12.5 μg/mL and ≦150 μg/mL)
[2]
  MIC, S. aureus 29213: * (an MIC value between >12.5 μg/mL and ≦150 μg/mL)
[3]
  MIC, E. coli 25922: * (an MIC value between >12.5 μg/mL and ≦150 μg/mL)

## CCNCc1cc2cc3c(cc2n1C)C(C)=CCc1c-3[nH]c(=O)c(C(=O)O)c1O.Cl [Cpd 70, 10-((ethylamino)methyl)-4-hydroxy-7,9-dimethyl-2-oxo-1,2,5,9-tetrahydropyrido[3′,2′:6,7]cyclohepta[1,2-f]indole-3-carboxylic acid hydrochloride]
[1]; [4]
  MIC: 3.5 to 12.5 µg/mL
[2]
  MIC: 3.5 to 12.5 µg/mL
[3]
  MIC: 3.5 to 12.5 µg/mL

## Cl.Cl.Cn1c(CNCCN)cc2cc3c(cc21)OCCc1c-3[nH]c(=O)c(C(=O)O)c1O [Cpd 180, 10-(((2-aminoethyl)amino)methyl)-4-hydroxy-9-methyl-2-oxo-2,5,6,9-tetrahydro-1H-pyrido[2′,3′:4,5]oxepino[3,2-f]indole-3-carboxylic acid dihydrochloride]
[1]; [4]
  MIC: 3.5 to 12.5 µg/mL
[2]
  MIC: 12.5 to 150 µg/mL
[3]
  MIC: 12.5 to 150 µg/mL

## Cn1c2c(c(O)c(C(=O)O)c1=O)CC=Cc1cc3c(ccn3C)cc1-2 [Cpd 131, 4-hydroxy-1,9-dimethyl-2-oxo-1,2,5,9-tetrahydropyrido[3′,2′:6,7]cyclohepta[1,2-f]indole-3-carboxylic acid]
[1]; [4]
  MIC: < 1 µg/mL
[2]
  MIC: 3.5 to 12.5 µg/mL (≈ 10.4 to 37.2 µM)
[3]
  MIC: 12.5 to 150 µg/mL (≈ 37.2 to 446 µM)

## C=CCNCc1cc2cc3c(cc2n1C)CCCc1c-3[nH]c(=O)c(C(=O)O)c1O.Cl [Cpd 153, 10-((allylamino)methyl)-4-hydroxy-9-methyl-2-oxo-1,2,5,6,7,9-hexahydropyrido[3′,2′:6,7]cyclohepta[1,2-f]indole-3-carboxylic acid hydrochloride]
[1]; [4]
  MIC: < 1 µg/mL
[2]
  MIC: 3.5 to 12.5 µg/mL
[3]
  MIC: < 1 µg/mL

## CCNCCc1cc2cc3c(cc2n1C)CCCc1c-3[nH]c(=O)c(C(=O)O)c1O.O=C(O)C(F)(F)F [Cpd 165, 10-(2-(ethylamino)ethyl)-4-hydroxy-9-methyl-2-oxo-1,2,5,6,7,9-hexahydropyrido[3′,2′:6,7]cyclohepta[1,2-f]indole-3-carboxylic acid trifluoroacetate]
[1]
  MIC: < 1 µg/mL
[2]
  MIC: 12.5 to 150 µg/mL
[3]
  MIC: 1 to 3.5 µg/mL
